From US4822799A, “Pyrazolopyridine analogs of mevalonolactone and derivatives thereof useful for inhibiting cholesterol biosynthesis in mammals” (Sandoz Pharm. Corp., priority 1988, dated 1989) come the findings set out here.

The subject of experiment [1] is 3β-hydroxysterol synthesis. The experiment in a line: Test B. In Vivo Cholesterol Biosynthesis Inhibition Test. Conditions: Rattus norvegicus, po, rats, orally administered, 0.1-200 mg/kg. body weight, read-out: ED50 (50% inhibition of 3β-hydroxysterol synthesis).
Procedure: Test B. In Vivo Cholesterol Biosynthesis Inhibition Test:
In this test the rats are orally administered the test substance (compound of Formula I) at a dose of 0.1-200 mg/kg. body weight. The obtained ED50 is the dose of the test substance observed or calculated to produce a 50% inhibition of 3β-hydroxysterol synthesis.
For experiment [2], the target named is T1, 3-hydroxy-3-methylglutaryl coenzyme A (HMG-CoA) reductase (Rattus norvegicus, UniProt P51639).
T1 construct: from tissue; host or cells: liver microsomes of Sprague-Dawley rats (tissue and species from own knowledge of the cited documents)
T1 sequence (P51639 1-887): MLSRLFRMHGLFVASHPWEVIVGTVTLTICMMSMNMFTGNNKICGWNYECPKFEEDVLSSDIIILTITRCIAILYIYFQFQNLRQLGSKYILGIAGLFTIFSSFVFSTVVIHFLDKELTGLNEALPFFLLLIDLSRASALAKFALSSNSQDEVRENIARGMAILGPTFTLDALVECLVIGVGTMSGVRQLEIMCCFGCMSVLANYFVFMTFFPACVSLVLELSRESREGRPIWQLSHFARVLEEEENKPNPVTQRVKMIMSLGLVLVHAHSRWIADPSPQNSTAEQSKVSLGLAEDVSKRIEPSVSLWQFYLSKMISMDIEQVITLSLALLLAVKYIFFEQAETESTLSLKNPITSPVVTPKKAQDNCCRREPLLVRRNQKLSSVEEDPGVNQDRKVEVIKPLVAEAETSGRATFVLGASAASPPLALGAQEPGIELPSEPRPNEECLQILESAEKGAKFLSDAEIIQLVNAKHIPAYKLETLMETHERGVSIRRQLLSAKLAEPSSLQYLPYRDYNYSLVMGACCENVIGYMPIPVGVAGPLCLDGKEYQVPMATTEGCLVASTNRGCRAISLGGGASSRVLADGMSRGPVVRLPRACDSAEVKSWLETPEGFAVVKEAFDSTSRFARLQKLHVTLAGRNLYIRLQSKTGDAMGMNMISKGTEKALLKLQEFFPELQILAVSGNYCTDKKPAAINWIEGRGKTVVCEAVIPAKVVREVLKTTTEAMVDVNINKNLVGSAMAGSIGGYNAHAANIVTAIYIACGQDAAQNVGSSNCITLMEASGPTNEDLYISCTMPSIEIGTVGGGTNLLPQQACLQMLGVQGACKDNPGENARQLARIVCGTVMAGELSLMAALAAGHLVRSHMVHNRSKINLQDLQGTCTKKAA
Put plainly: Test A. In Vitro Microsomal Assay of HMG-CoA Reductase Inhibition. It is filed as biochemical. Conditions: test substance 0.001-2,000 μmolar, read-out: IC50 (50% inhibition of HMG-CoA reductase activity). As for the experimental part: Test A. In Vitro Microsomal Assay of HMG-CoA Reductase Inhibition:
This test is carried out precisely as described in column 53 of U.S. Pat. No. 4,613,610 and on page 30 of World (PCT) Published patent application No. 84/02131, both of which are hereby incorporated by reference as if set forth herein in their entirety. The concentration of the test substance (compound of Formula I) in the assay system is 0.001-2,000 μmolar. The obtained IC50 is the concentration of the test substance in the assay system observed or calculated to produce a 50% inhibition of HMG-CoA reductase activity.

For orientation: ED50 means the midpoint of the dose-response relation. What is called IC50 is the concentration needed to halve the response being measured.

`CC[C@H](C)C(=O)O[C@H]1C[C@@H](C)C=C2C=C[C@H](C)[C@H](CC[C@@H]3C[C@@H](O)CC(=O)O3)[C@H]21` [Mevinolin]: in experiment [1], the ED50 amounted to 0.38 mg/kg.

Turning to `CC[C@H](C)C(=O)O[C@H]1CCC=C2C=C[C@H](C)[C@H](CC[C@@H]3C[C@@H](O)CC(=O)O3)[C@H]21` [Compactin], in experiment [1], the ED50 came to 3.5 mg/kg.

Turning to `Cc1nn(C)c2nc(C(C)C)c(/C=C/[C@@H](O)C[C@@H](O)CC(=O)O)c(-c3ccc(F)cc3)c12` [Example 2, Sodium (3R,5S)-(E)-3,5-dihydroxy-7-[1',3'-dimethyl-4'-(4"-fluorophenyl)-6'-(1"-methylethyl)-1H-pyrazolo[3,4-b]pyrid-5'-yl]hept-6-enoate], in experiment [2], the IC50 turned out to be 10 nM.
